The values that follow come from patent US11702404B2, “GLP-1R modulating compounds” (priority 2019, dated 2023).

What is called EC50 is the midpoint of the concentration-response curve.

Series [1] in a line: Microsomal stability, human liver microsomes (predicted hepatic clearance). Conditions: predicted from in vitro microsomal stability data.
Series [2] deals with GLP-1R (Homo sapiens, UniProt P43220). The series is described as follows: GLP-1R activation: cAMP increase in CHO cells stably expressing GLP-1R. Type of series: cell-based. Conditions: cAMP increase, CHO cells stably expressing GLP-1R, 10 point dose response, 30 minutes incubation; read-out: EC50.
Sequence of GLP-1R (P43220 24-463): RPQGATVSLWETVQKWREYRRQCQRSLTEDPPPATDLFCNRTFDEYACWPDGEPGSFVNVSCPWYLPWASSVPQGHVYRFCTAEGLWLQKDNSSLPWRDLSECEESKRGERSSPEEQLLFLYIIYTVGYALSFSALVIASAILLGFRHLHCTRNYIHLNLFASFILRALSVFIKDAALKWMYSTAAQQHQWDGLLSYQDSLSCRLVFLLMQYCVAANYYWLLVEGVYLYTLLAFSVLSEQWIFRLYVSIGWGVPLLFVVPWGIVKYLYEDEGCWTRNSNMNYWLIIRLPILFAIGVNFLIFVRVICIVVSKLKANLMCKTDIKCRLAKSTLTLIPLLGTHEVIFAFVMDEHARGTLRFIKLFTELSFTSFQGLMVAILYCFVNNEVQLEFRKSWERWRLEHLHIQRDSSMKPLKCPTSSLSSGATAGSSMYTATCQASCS

Regarding `O=C(O)c1cc(F)c2nc(Cc3cc(F)c(-c4nc(OCc5ccc(C(F)F)cc5F)ccc4F)cc3F)n(C[C@@H]3CCO3)c2c1` [Example 769], the “Predicted Hepatic Clearance (Pred. Cl.)” value in series [1] is 3.67 mL/min/kg. Also, the EC50 in series [2] was found to be 0.03 nM.
For `O=C(O)c1cc(F)c2nc(Cc3ccc(-c4ccc(F)c(OCc5ccc(C(F)F)cc5F)n4)cc3F)n(CC34CC(CO3)C4)c2c1` [Example 770] the same measures were 1.83 mL/min/kg and 2.62 nM.
In the same order, the values of `N#Cc1ccc(COc2nc(-c3ccc(Cc4nc5c(F)cc(C(=O)O)cc5n4CC45CC(CO4)C5)c(F)c3)ccc2F)c(F)c1` [Example 771] are 1.83 mL/min/kg and 2.17 nM.
On to `O=C(O)c1ccc2nc(Cc3cc(F)c(-c4ccc(F)c(OCc5ccc(C(F)F)cc5F)n4)cc3F)n(CC34CC(CO3)C4)c2c1` [Example 772], for which the “Predicted Hepatic Clearance (Pred. Cl.)” value in series [1] is 1.83 mL/min/kg. The half-maximal effective concentration (EC50) in series [2] is 0.61 nM.
On to `O=C(O)c1ccc2nc(Cc3ccc(-c4ccc(F)c(OCc5ccc(C(F)F)cc5F)n4)cc3F)n(C[C@@H]3CCO3)c2c1` [Example 773], for which the “Predicted Hepatic Clearance (Pred. Cl.)” value in series [1] was 1.83 mL/min/kg. Besides, the EC50 in series [2] was determined as 0.12 nM.
With `O=C(O)c1cc(F)c2nc(Cc3ccc(-c4ccc(F)c(OCc5ccc(C(F)F)cc5F)n4)cc3F)n(C[C@@H]3CCO3)c2c1` [Example 774], the “Predicted Hepatic Clearance (Pred. Cl.)” value in series [1] is 2.08 mL/min/kg. Moreover, in series [2], the EC50 worked out at 0.06 nM.
For `N#Cc1ccc(COc2cccc(-c3cc(CO)c(Cc4nc5ccc(C(=O)O)cc5n4C[C@@H]4CCO4)cc3F)n2)c(F)c1` [Example 775] the same measures were 3.17 mL/min/kg and 0.1 nM.
On to `N#Cc1cc(F)c(COc2cccc(-c3ccc(Cc4nc5c(F)cc(C(=O)O)cc5n4C[C@@H]4CCO4)cc3F)n2)cc1F` [Example 776], for which the “Predicted Hepatic Clearance (Pred. Cl.)” value in series [1] was 3.17 mL/min/kg. In addition, the EC50 in series [2] amounted to 26.9 nM.
Turning to `N#Cc1ccc(COc2ccnc(-c3ccc(Cc4nc5ccc(C(=O)O)cc5n4C[C@@H]4CCO4)cc3F)n2)c(F)c1` [Example 777], in series [1], the “Predicted Hepatic Clearance (Pred. Cl.)” value is 4.5 mL/min/kg. In series [2], the EC50 is 0.73 nM.
Consider `N#Cc1ccc(COc2ccnc(-c3cc(F)c(Cc4nc5c(F)cc(C(=O)O)cc5n4C[C@@H]4CCO4)cc3F)n2)c(F)c1` [Example 778], for which the “Predicted Hepatic Clearance (Pred. Cl.)” value in series [1] was 3.67 mL/min/kg. In addition, in series [2], the 50% effective concentration (EC50) was determined as 0.13 nM.
Turning to `N#Cc1ccc(COc2nc(-c3cc(F)c(Cc4nc5c(F)cc(C(=O)O)cc5n4C[C@@H]4CCO4)cc3F)ccc2F)cn1` [Example 779], the “Predicted Hepatic Clearance (Pred. Cl.)” value in series [1] was 1.83 mL/min/kg. The EC50 in series [2] amounted to 0.17 nM.
For `N#Cc1ccc(COc2nc(-c3ccc(Cc4nc5c(F)cc(C(=O)O)cc5n4C[C@@H]4CCO4)cc3F)ccc2F)c(F)c1` [Example 780] the same measures were 1.83 mL/min/kg and 0.12 nM.
As to `O=C(O)c1cc(F)c2nc(Cc3cc(F)c(-c4nc(OCc5ccc(C(F)(F)F)cc5F)ccc4F)cc3F)n(C[C@@H]3CCO3)c2c1` [Example 781], in series [1], the “Predicted Hepatic Clearance (Pred. Cl.)” value was 3.17 mL/min/kg. The EC50 in series [2] was 0.03 nM.
In the same order, the values of `N#Cc1ccc(COc2ccc(F)c(-c3cc(F)c(Cc4nc5c(F)cc(C(=O)O)cc5n4CC45COC(C4)C5)cc3F)n2)c(F)c1` [Example 782] are 11.2 mL/min/kg and 3.31 nM.
For `O=C(O)c1cc(F)c2nc(Cc3cc(F)c(-c4cccc(OCc5ccc(C(F)(F)F)cc5F)n4)cc3F)n(Cc3ncco3)c2c1` [Example 783] the same measures were 1.83 mL/min/kg and 0.11 nM.
In the case of `N#Cc1cc(F)c(COc2cccc(-c3cc(F)c(Cc4nc5c(F)cc(C(=O)O)cc5n4Cc4ncco4)cc3F)n2)cc1F` [Example 784], in series [1], the “Predicted Hepatic Clearance (Pred. Cl.)” value was 1.83 mL/min/kg. Moreover, the EC50 in series [2] was 0.55 nM.
For `O=C(O)c1ccc2nc(Cc3cc(F)c(-c4ccnc(OCc5ccc(C(F)(F)F)cc5F)n4)cc3F)n(C[C@@H]3CCO3)c2c1` [Example 785], the “Predicted Hepatic Clearance (Pred. Cl.)” value in series [1] is 1.83 mL/min/kg. Moreover, the concentration for a half-maximal effect (EC50) in series [2] turned out to be 0.05 nM.
For the compound `N#Cc1cc(F)c(COc2nccc(-c3cc(F)c(Cc4nc5ccc(C(=O)O)cc5n4C[C@@H]4CCO4)cc3F)n2)cc1F` [Example 786], the “Predicted Hepatic Clearance (Pred. Cl.)” value in series [1] was 1.83 mL/min/kg. In series [2], the half-maximal effective concentration (EC50) turned out to be 0.22 nM.
As for `O=C(O)c1ccc2nc(Cc3ccc(-c4ccnc(OCc5ccc(C(F)(F)F)cc5F)n4)c(F)c3)n(C[C@@H]3CCO3)c2c1` [Example 788], the “Predicted Hepatic Clearance (Pred. Cl.)” value in series [1] is 5.5 mL/min/kg. In series [2], the EC50 was 0.17 nM.
For `N#Cc1cc(F)c(COc2nccc(-c3ccc(Cc4nc5ccc(C(=O)O)cc5n4C[C@@H]4CCO4)cc3F)n2)cc1F` [Example 789] the same measures were 5.67 mL/min/kg and 1.18 nM.
On to `O=C(O)c1ccc2nc(Cc3ccc(-c4ccnc(OCc5ccc(C(F)F)cc5F)n4)c(F)c3)n(C[C@@H]3CCO3)c2c1` [Example 790], for which the “Predicted Hepatic Clearance (Pred. Cl.)” value in series [1] is 3 mL/min/kg. In series [2], the EC50 worked out at 0.44 nM.
For the compound `COCCn1c(Cc2cc(F)c(-c3nc(OCc4ccc(C#N)cc4F)ccc3F)cc2F)nc2c(F)cc(C(=O)O)cc21` [Example 791], in series [1], the “Predicted Hepatic Clearance (Pred. Cl.)” value was 4.83 mL/min/kg. Further, the EC50 in series [2] is 2.75 nM.
Take `N#Cc1ccc(COc2ccc(F)c(-c3cc(F)c(Cc4nc5c(F)cc(C(=O)O)cc5n4C[C@@H]4CCO4)cc3F)n2)c(F)c1` [Example 792]: in series [1], the “Predicted Hepatic Clearance (Pred. Cl.)” value was 6.17 mL/min/kg. The half-maximal effective concentration (EC50) in series [2] was found to be 0.04 nM.
On to `N#Cc1ccc(COc2ccc(F)c(-c3cc(F)c(Cc4nc5ccc(C(=O)O)cc5n4C[C@@H]4CCO4)cc3F)n2)c(F)c1` [Example 793], for which the “Predicted Hepatic Clearance (Pred. Cl.)” value in series [1] is 5.67 mL/min/kg. In addition, in series [2], the half-maximal effective concentration (EC50) stood at 0.17 nM.
Turning to `N#Cc1ccc(COc2ccc(F)c(-c3ccc(Cc4nc5ccc(C(=O)O)cc5n4C[C@@H]4CCO4)cc3)n2)c(F)c1` [Example 794], the “Predicted Hepatic Clearance (Pred. Cl.)” value in series [1] is 6.17 mL/min/kg. For the same compound, in series [2], the EC50 stood at 0.97 nM.
For `N#Cc1ccc(COc2nc(-c3ccc(Cc4nc5ccc(C(=O)O)cc5n4C[C@@H]4CCO4)cc3)ccc2F)c(F)c1` [Example 795], the “Predicted Hepatic Clearance (Pred. Cl.)” value in series [1] is 1.83 mL/min/kg. In addition, the half-maximal effective concentration (EC50) in series [2] is 0.65 nM.
`N#Cc1cc(F)c(COc2cccc(-c3cc(F)c(Cc4nc5c(F)cc(C(=O)O)cc5n4C[C@@H]4CCO4)cc3F)n2)cc1F` [Example 796]: the “Predicted Hepatic Clearance (Pred. Cl.)” value in series [1] was 1.83 mL/min/kg. Besides, in series [2], the EC50 was found to be 0.03 nM.
Regarding `N#Cc1ccc(COc2ccc(F)c(-c3ccc(Cc4nc5ccc(C(=O)O)cc5n4C[C@@H]4CCO4)c(F)c3)n2)c(F)c1` [Example 797], the “Predicted Hepatic Clearance (Pred. Cl.)” value in series [1] was 7.17 mL/min/kg. In addition, the concentration giving a half-maximal response (EC50) in series [2] came out at 0.27 nM.
`N#Cc1cc(F)c(COc2cccc(-c3cc(F)c(Cc4nc5ccc(C(=O)O)cc5n4C[C@@H]4CCO4)cc3F)n2)cc1F` [Example 798]: in series [1], the “Predicted Hepatic Clearance (Pred. Cl.)” value is 5.33 mL/min/kg. In addition, in series [2], the EC50 turned out to be 0.12 nM.
For `COCCn1c(Cc2cc(F)c(-c3cccc(OCc4ccc(C#N)cc4)n3)cc2F)nc2c(F)cc(C(=O)O)cc21` [Example 799] the same measures were 2.67 mL/min/kg and 135 nM.
Consider `O=C(O)c1ccc2nc(Cc3cc(F)c(-c4cccc(OCc5ccc(C(F)F)cc5F)n4)cc3F)n(C[C@@H]3CCO3)c2c1` [Example 800], for which, in series [1], the “Predicted Hepatic Clearance (Pred. Cl.)” value was 1.83 mL/min/kg. Besides, the EC50 in series [2] came to 0.1 nM.
In the case of `O=C(O)c1ccc2nc(Cc3cc(F)c(-c4ccnc(OCc5ccc(C(F)F)cc5F)n4)cc3F)n(C[C@@H]3CCO3)c2c1` [Example 801], the “Predicted Hepatic Clearance (Pred. Cl.)” value in series [1] was 3.17 mL/min/kg. The EC50 in series [2] worked out at 0.12 nM.
Take `COCCn1c(Cc2cc(F)c(-c3cccc(OCc4ccc(Cl)c(F)c4F)n3)cc2F)nc2ccc(C(=O)O)cc21` [Example 802]: in series [1], the “Predicted Hepatic Clearance (Pred. Cl.)” value is 2.33 mL/min/kg. For the same compound, in series [2], the EC50 was 3.64 nM.
Take `COCCn1c(Cc2cc(F)c(-c3cccc(OCc4ccc(C)cn4)n3)cc2F)nc2ccc(C(=O)O)cc21` [Example 803]: the “Predicted Hepatic Clearance (Pred. Cl.)” value in series [1] was 13.3 mL/min/kg. For the same compound, the concentration giving a half-maximal response (EC50) in series [2] amounted to 5.95 nM.
Take `COCCn1c(Cc2cc(F)c(-c3cccc(OCc4cc(C#N)cs4)n3)cc2F)nc2ccc(C(=O)O)cc21` [Example 804]: the “Predicted Hepatic Clearance (Pred. Cl.)” value in series [1] was 11.5 mL/min/kg. Further, in series [2], the concentration for a half-maximal effect (EC50) turned out to be 43.6 nM.
On to `COCCn1c(Cc2cc(F)c(-c3cccc(OCc4ccc(C#N)s4)n3)cc2F)nc2ccc(C(=O)O)cc21` [Example 805], for which the “Predicted Hepatic Clearance (Pred. Cl.)” value in series [1] was 12 mL/min/kg. Moreover, the EC50 in series [2] worked out at 7.12 nM.
As to `O=C(O)c1ccc2nc(Cc3ccc(-c4cccc(OCc5ccc(Cl)nc5)n4)c(F)c3)n(C[C@@H]3CCO3)c2c1` [Example 806], the “Predicted Hepatic Clearance (Pred. Cl.)” value in series [1] was 7.17 mL/min/kg. In series [2], the half-maximal effective concentration (EC50) is 0.54 nM.
Take `N#Cc1ccc(COc2cccc(-c3cc(F)c(Cc4nc5ccc(C(=O)O)cc5n4C[C@@H]4CCO4)cc3F)n2)cn1` [Example 807]: the “Predicted Hepatic Clearance (Pred. Cl.)” value in series [1] was 3.33 mL/min/kg. In addition, in series [2], the concentration for a half-maximal effect (EC50) stood at 0.18 nM.
Take `O=C(O)c1ccc2nc(Cc3cc(F)c(-c4cccc(OCc5ccc(Cl)cc5)n4)cc3F)n(C[C@@H]3CCO3)c2c1` [Example 808]: in series [1], the “Predicted Hepatic Clearance (Pred. Cl.)” value is 3.5 mL/min/kg. The concentration for a half-maximal effect (EC50) in series [2] amounted to 0.05 nM.
In the same order, the values of `COCCn1c(Cc2cc(F)c(-c3cccc(OCc4ccc(C(F)F)cc4)n3)cc2F)nc2ccc(C(=O)O)cc21` [Example 809] are 2.83 mL/min/kg and 1.05 nM.
Turning to `COCCn1c(Cc2cc(F)c(-c3cccc(OCc4ccc(C)cc4F)n3)cc2F)nc2ccc(C(=O)O)cc21` [Example 810], the “Predicted Hepatic Clearance (Pred. Cl.)” value in series [1] is 6.83 mL/min/kg. In addition, the EC50 in series [2] was found to be 0.33 nM.
Take `COCCn1c(Cc2cc(F)c(-c3cccc(OCc4ccc(C)nc4)n3)cc2F)nc2ccc(C(=O)O)cc21` [Example 811]: in series [1], the “Predicted Hepatic Clearance (Pred. Cl.)” value is 10 mL/min/kg. Further, the EC50 in series [2] was determined as 3.57 nM.
